System: T1, urease
T1 construct: jack bean is only the usual preparation; docking model 1E9Z (Helicobacter pylori) is not the assayed enzyme
Experiment: indophenol (phenol-hypochlorite) ammonia assay, […] nm
Type: biochemical
Conditions: urea substrate (2.25% solution), phosphate buffer pH 7.0, room temperature, 15 min preincubation

Structure (SMILES): NC(=O)NO [hydroxy urea]
- Urease IC50: 9.8 ± 1.20 µg/mL

From PMC9573548, “Metabolic Profiling by GC-MS, In Vitro Biological Potential, and In Silico Molecular Docking Studies of Verbena officinalis” (Molecules, 2022)
